# Experimental data as given in patent EP0648766A1, “AGENT ACTING ON THE CENTRAL NERVOUS SYSTEM, METHOD FOR ITS PREPARATION AND PHARMACEUTICAL COMPOSITIONS CONTAINING SUCH AGENT” (VITA-INVEST, S.A., priority 1993, dated 1994).
# Where two headings read alike, the source gives them in different places.
# Legend:
# rats [1] = assay: Anxiolytic activity, social interaction test (method of File); format: in vivo
# Source text: 2) Anxiolytic activity. Social interaction test.
# This consists in placing a pair of rats in an unknown and strongly lit environment.
# [2] = Anxiolytic activity, two-compartment box (method of Crawley); format: in vivo
# Source text: 1) Anxiolytic activity. Two-compartment box.
# The method used is that of Crawley, J.N.; Pharmacol. Biochem. Behav., 15, 695-699 (1981). This consists of a two-compartment box with different lighting, counting the time of stay and number of entries into the light and dark compartments, the number of lifting movements and the number of lines crossed in each of the two compartments, before and after treatment with the products under study.
# mouse = assay: Antidepressive activity, desperate behaviour induced by enforced swimming, Porsolt test; format: in vivo; conditions: mice
# Method: 3) Antidepressive activity. Desperate behaviour induced in mouse by enforced swimming. Porsolt test.
# This consists in subjecting the mice to a swimming test by placing them inside transparent cylinders of set dimensions, with water at a temperature of 20-22°C. After a prior detection test, the time the animal takes to adopt an immobile posture is determined, recording the duration of immobility. The average immobility time of the treated groups is compared with that of the control group.
# rats [3] = assay: Effect on learning and memory, passive avoidance test; format: in vivo
# Source text: 4) Effect on learning and memory. Passive avoidance test on rats.
# Use is made of the method of Chugh and colls., Eur. J. Pharmacol., 203, 121-123 (1991). This consists in placing the rats in a two-compartment (light and dark) box separated by a door which opens and closes as the experimenter wishes; the floor of both cages is constructed using a metal grid electrifiable as desired in terms of current and duration. The animal is conditioned to avoid the dark zone, and the time of latency in the exposures following the one in which the animals receive the electric shock of 0.2 mA and duration of 3 seconds is determined.
# Acute toxicity = assay: Acute toxicity; design: species or system mice; conditions: mouse, in vivo
# Method: The acute toxicity is determined by different vias in mice.
# [4] = ip, mice, i.p., read-out: APPROXIMATE DL₅₀
# [5] = 0,01 mg/kg i.p., Excipient 158 ± 15
smiles,measurement,setting,value
O=C1CC2(CCCC2)CC(=O)N1CCCCN1CCN(c2ncccn2)CC1 [BUSPIRONA],SOCIAL INTERACTION TIME (sec ± E.S.),"rats [1]; 0,25 mg/kg i.p., Excipient 158 ± 15",287 ± 19 s
same,SOCIAL INTERACTION TIME (sec ± E.S.),"rats [1]; 1 mg/kg i.p., Excipient 158 ± 15",275 ± 14 s
"O=Cc1c(N2CCN(Cc3ccc4c(c3)OCO4)CC2)[nH]c2ccccc12 [COMPOUND I, 3-[2-(1-(4'-piperonylpiperazinyl))indolyl]-carboxaldehyde]",% TIME IN LIGHT COMPARTMENT (X ± E.S.),"[2]; 2 µg/kg i.p., N 11, same group PRE-EXPOSURE 10,8 ± 3,6","14,6 ± 7,2%"
same,% TIME IN LIGHT COMPARTMENT (X ± E.S.),"[2]; 4 µg/kg v.o., N 10, same group PRE-EXPOSURE 14,5 ± 4,0","20,0 ± 5,5%"
same,% TIME IN LIGHT COMPARTMENT (X ± E.S.),"[2]; 8 µg/kg v.o., N 11, same group PRE-EXPOSURE 24,9 ± 6,8","28,6 ± 8,0%"
same,% TIME IN LIGHT COMPARTMENT (X ± E.S.),"[2]; 20 µg/kg i.p., N 11, same group PRE-EXPOSURE 10,7 ± 3,5","12,7 ± 6,5%"
same,% TIME IN LIGHT COMPARTMENT (X ± E.S.),"[2]; 50 µg/kg i.p., N 20, same group PRE-EXPOSURE 22,9 ± 3,1","15,4 ± 4,4%"
same,% TIME IN LIGHT COMPARTMENT (X ± E.S.),"[2]; 100 µg/kg i.p., N 20, same group PRE-EXPOSURE 15,0 ± 2,0","8,6 ± 3,2%"
same,SOCIAL INTERACTION TIME (sec ± E.S.),"rats [1]; 0,5 mg/kg i.p., Excipient 158 ± 15",235 ± 12 s
same,SOCIAL INTERACTION TIME (sec ± E.S.),"rats [1]; 2 mg/kg v.o., Excipient i.p 158 ± 15",262 ± 17 s
same,IMMOBILITY TIME (sec ± E.S.),"mouse; 0,1 mg/kg i.p., Excipient 89,70 ± 21,7","49,4 ± 17,8 sec"
same,IMMOBILITY TIME (sec ± E.S.),"mouse; 0,5 mg/kg i.p., Excipient 89,70 ± 21,7","31,60 ± 10,2 sec"
same,IMMOBILITY TIME (sec ± E.S.),"mouse; 1 mg/kg i.p., Excipient 132,53 ± 8,70","59,80 ± 11,00 sec"
same,IMMOBILITY TIME (sec ± E.S.),"mouse; 10 mg/kg i.p., Excipient 132,53 ± 8,70","136,60 ± 11,26 sec"
same,"2nd LATENCY (10'), average ± E.S.","rats [3]; 1 mg/kg i.p., N 7, Excipient 5,7 ± 1,5","3,3 ± 1,4"
same,"2nd LATENCY (10'), median","rats [3]; 1 mg/kg i.p., N 7, Excipient 6",4
same,"1st LATENCY, average ± E.S.","rats [3]; 1 mg/kg i.p., N 7, Excipient 7,1 ± 1,6","2,7 ± 0,7"
same,"1st LATENCY, median","rats [3]; 1 mg/kg i.p., N 7, Excipient 9",3
same,"3rd LATENCY -(24 h), average ± E.S.","rats [3]; 1 mg/kg i.p., N 7, Excipient 10,7 ± 4,8","23,6 ± 9,0"
same,"3rd LATENCY -(24 h), median","rats [3]; 1 mg/kg i.p., N 7, Excipient 21",42
same,LD50,Acute toxicity; [4],> 500 mg/kg
same,LD50,"Acute toxicity; po, mice, v.o., read-out: APPROXIMATE DL₅₀",> 500 mg/kg
CN1C(=O)CN=C(c2ccccc2)c2cc(Cl)ccc21 [DIAZEPAM],SOCIAL I[…] (sec ± E.S.),"rats [1]; 2 mg/kg i.p., Excipient 158 ± 15",257 ± 22 s
CN1C2CCCC1CC(NC(=O)c1nn(C)c3ccccc13)C2 (stereo not shown) [GRANISETRON],"2nd LATENCY (10'), average ± E.S.","rats [3]; 0,1 mg/kg i.p., N 6, Excipient 5,7 ± 1,5","8,5 ± 1,8"
same,"2nd LATENCY (10'), median","rats [3]; 0,1 mg/kg i.p., N 6, Excipient 6",11
same,"1st LATENCY, average ± E.S.","rats [3]; 0,1 mg/kg i.p., N 6, Excipient 7,1 ± 1,6","6,3 ± 1,1"
same,"1st LATENCY, median","rats [3]; 0,1 mg/kg i.p., N 6, Excipient 9",8
same,"3rd LATENCY -(24 h), average ± E.S.","rats [3]; 0,1 mg/kg i.p., N 6, Excipient 10,7 ± 4,8","19,0 ± 6,5"
same,"3rd LATENCY -(24 h), median","rats [3]; 0,1 mg/kg i.p., N 6, Excipient 21",21
same,LD50,Acute toxicity; [4],89 mg/kg
Cc1nccn1CC1CCc2c(c3ccccc3n2C)C1=O (stereo not shown) [ONDANSETRON],% TIME IN LIGHT COMPARTMENT (X ± E.S.),"[2]; 2µg/kg i.p., N 10, same group PRE-EXPOSURE 16,6 ± 3,3","12,3 ± 2,7%"
same,% TIME IN LIGHT COMPARTMENT (X ± E.S.),"[2]; 4 µg/kg v.o., N 10, same group PRE-EXPOSURE 21,1 ± 8,0","18,7 ± 5,1%"
same,SOCIAL INTERACTION TIME (sec ± E.S.),rats [1]; [5],247 ± 22 s
same,SOCIAL INTERACTION TIME (sec ± E.S.),"rats [1]; 0,05 mg/kg i.p., Excipient 158 ± 15",219 ± 18 s
same,LD50,Acute toxicity; ip,7.5 mg/kg
CN1[C@@H]2CC[C@H]1C[C@@H](OC(=O)c1c[nH]c3ccccc13)C2 [TROPISETRON],% TIME IN LIGHT COMPARTMENT (X ± E.S.),"[2]; 10 µg/kg i.p., N 20, same group PRE-EXPOSURE 12,4 ± 3,0","12,3 ± 3,0%"
same,SOCIAL INTERACTION TIME (sec ± E.S.),rats [1]; [5],253 ± 10 s
same,SOCIAL INTERACTION TIME (sec ± E.S.),"rats [1]; 0,1 mg/kg i.p., Excipient 158 ± 15",231 ± 26 s
COc1cc(N)c(Cl)cc1C(=O)NC1CN2CCC1CC2 (stereo not shown) [ZACOPRIDE],LD50,Acute toxicity; [4],135 mg/kg
CN(C)CCCN1c2ccccc2CCc2ccccc21 [[…]],[…] (sec ± E.S.),"mouse; 30 mg/kg i.p., Excipient 132,53 ± 8,70","71,72 ± 9,82 sec"
